Results on 18 molecules are retold here after ChEMBL document CHEMBL1150460, “Synthesis and 5-HT3 receptor antagonist potency of novel (endo) 3,9-diazabicyclo[3.3.1]nonan-7-amino derivatives” (Bioorg Med Chem Lett, 1994).

pKi: −log10 of the molar value.

The term pKi denotes the Ki on a negative log10 scale, so that one unit is a factor of ten. A high value points to a small Ki.

The target of experiment [1] is Serotonin 3 (5-HT3) receptor (Rattus norvegicus) (UniProt P35563+Q9JJ16). The experiment can be described thus: Inhibition of the von Bezold-Jarisch reflex bradycardia induced by an iv bolus injection of 5-HT. It is filed as functional, organism-based.
The target of experiment [2] is T1, Serotonin 3 (5-HT3) receptor (Rattus norvegicus, UniProt P35563+Q9JJ16).
T1 sequence (P35563 whole entry): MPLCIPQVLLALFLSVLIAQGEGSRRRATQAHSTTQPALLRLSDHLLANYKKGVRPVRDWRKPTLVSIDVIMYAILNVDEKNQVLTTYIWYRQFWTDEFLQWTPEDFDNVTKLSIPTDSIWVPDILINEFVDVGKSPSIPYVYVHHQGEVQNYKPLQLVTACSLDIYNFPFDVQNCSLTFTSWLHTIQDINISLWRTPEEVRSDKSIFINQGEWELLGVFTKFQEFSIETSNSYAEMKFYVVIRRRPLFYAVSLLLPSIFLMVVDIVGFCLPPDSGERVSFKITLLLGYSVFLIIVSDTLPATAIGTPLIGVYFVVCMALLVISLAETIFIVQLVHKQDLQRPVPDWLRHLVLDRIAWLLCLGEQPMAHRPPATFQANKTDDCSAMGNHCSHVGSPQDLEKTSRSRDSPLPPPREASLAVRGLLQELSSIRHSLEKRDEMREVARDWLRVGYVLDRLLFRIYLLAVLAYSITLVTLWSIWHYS
T1 sequence (Q9JJ16 whole entry): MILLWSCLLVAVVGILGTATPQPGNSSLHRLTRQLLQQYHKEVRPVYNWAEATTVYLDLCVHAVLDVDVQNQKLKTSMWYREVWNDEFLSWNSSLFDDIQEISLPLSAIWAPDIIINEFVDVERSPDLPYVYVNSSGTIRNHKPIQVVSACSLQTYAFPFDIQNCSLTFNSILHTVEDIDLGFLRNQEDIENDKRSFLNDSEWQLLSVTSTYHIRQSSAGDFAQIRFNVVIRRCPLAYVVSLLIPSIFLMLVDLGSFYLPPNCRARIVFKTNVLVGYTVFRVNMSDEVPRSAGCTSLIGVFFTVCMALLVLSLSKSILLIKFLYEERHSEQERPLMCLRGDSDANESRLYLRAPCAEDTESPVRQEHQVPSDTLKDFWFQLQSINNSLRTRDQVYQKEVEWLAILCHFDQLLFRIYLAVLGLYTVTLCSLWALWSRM
The experiment is described as follows: Displacement of [3H]granisetron from 5-hydroxytryptamine 3 receptor of rat cortex. On the technique in general: Displacement assays read how much labelled ligand stays bound in the presence of the test substance.

`CCN1CC2CC(NC(=O)c3nn(C)c4ccccc34)CC(C1)N2C` (stereo not drawn) registered an Inhibitory dose in experiment [1] of 0.8 µg/kg. This molecule gave a pKi in experiment [2] of 8.80.

As to `CN1C2CC(NC(=O)c3nn(C)c4ccccc34)CC1CN(Cc1ccccc1)C2` (stereo not drawn), in experiment [1], the Inhibitory dose stood at 0.16 µg/kg. In experiment [2], this molecule gave a pKi of 9.30. With `CC(C)N1CC2CC(NC(=O)c3nn(C)c4ccccc34)CC(C1)N2C` (stereo not drawn), in experiment [1], the Inhibition was 0.65 µg/kg. The negative-log Ki (pKi) in experiment [2] was 9.10.

In turn, `CCCCN1CC2CC(NC(=O)c3nn(C)c4ccccc34)CC(C1)N2C` (stereo not drawn) showed a pKi in experiment [2] of 8.60. For `CN1C2CCCC1CC(NC(=O)c1nn(C)c3ccccc13)C2` (stereo not drawn), the Inhibitory dose in experiment [1] came out at 0.7 µg/kg. For the molecule `CCN1CC2CC(NC(=O)N3CC(C)(C)c4ccccc43)CC(C1)N2C` (stereo not drawn), the Inhibitory dose in experiment [1] came to 0.6 µg/kg. In experiment [2], the pKi is 8.60.

`CN1C2CC(NC(=O)N3CC(C)(C)c4ccccc43)CC1CN(Cc1ccccc1)C2` (stereo not drawn) displayed an Inhibitory dose in experiment [1] of 1.8 µg/kg. In experiment [2], `CN1CC2CC(NC(=O)N3CC(C)(C)c4ccccc43)CC(C1)N2C` (stereo not drawn) showed a pKi of 9.00. The same measure, in the same setting: the same measure for `CN1C2CC(NC(=O)N3CC(C)(C)c4ccccc43)CC1CN(C(=O)c1ccccc1)C2` (stereo not drawn): 8.00. Same read-out and setting: the same measure for `CC(=O)N1CC2CC(NC(=O)N3CC(C)(C)c4ccccc43)CC(C1)N2C` (stereo not drawn): 8.40. As to `CN1C2CC(NC(=O)c3nn(C)c4ccccc34)CC1CN(c1ccccc1)C2` (stereo not drawn), in experiment [1], the Inhibitory dose worked out at 3 µg/kg. The same measure, in the same setting: the same measure for `COc1cc(N)c(Cl)cc1C(=O)NC1CC2CN(Cc3ccccc3)CC(C1)N2C` (stereo not drawn): 0.5 µg/kg. In experiment [2], `CCCN1CC2CC(NC(=O)c3nn(C)c4ccccc34)CC(C1)N2C` (stereo not drawn) showed a pKi of 8.50.

In experiment [1], `CC(C)N1CC2CC(NC(=O)N3CC(C)(C)c4ccccc43)CC(C1)N2C` (stereo not drawn) had an Inhibitory dose of 0.43 µg/kg. In experiment [2], this molecule had a negative-log Ki (pKi) of 8.90. As for `COc1cc(N)c(Cl)cc1C(=O)NC1CC2CN(C)CC(C1)N2C` (stereo not drawn), in experiment [1], the Inhibitory dose was determined as 2.5 µg/kg. For `CCCCN1CC2CC(NC(=O)N3CC(C)(C)c4ccccc43)CC(C1)N2C` (stereo not drawn), in experiment [2], the pKi is 7.70.

Take `CN1C2CNCC1CC(NC(=O)N1CC(C)(C)c3ccccc31)C2` (stereo not drawn): the pKi in experiment [2] is 9.00. In experiment [2], `CC(C)CN1CC2CC(NC(=O)c3nn(C)c4ccccc34)CC(C1)N2C` (stereo not drawn) gave a pKi of 8.50.
